Test: xn = mol fraction of the nth substance listed
Conditions: 101 kPa

**Q.** Which electrical conductivity (268.15 K, x2 = 0.7822) does the source give for `CCCCCCCCOS(=O)(=O)[O-].CC[n+]1ccn(C)c1` + O here?
**A.** The electrical conductivity was 0.277 S/m.

**Q.** What about the electrical conductivity (268.15 K, x2 = 0.8104) of the same compound?
**A.** The electrical conductivity was 0.331 S/m.

**Q.** What about the electrical conductivity (268.15 K, x2 = 0.8384) of the same compound?
**A.** Its electrical conductivity is 0.406 S/m.

**Q.** What about the electrical conductivity (273.15 K, x2 = 0.7822) of the same compound?
**A.** The electrical conductivity was 0.355 S/m.

**Q.** What about the electrical conductivity (273.15 K, x2 = 0.8104) of the same compound?
**A.** The electrical conductivity was 0.417 S/m.

**Q.** What about the electrical conductivity (273.15 K, x2 = 0.8384) of the same compound?
**A.** Its electrical conductivity is 0.529 S/m.

**Q.** What about the electrical conductivity (278.15 K, x2 = 0.7822) of the same compound?
**A.** The electrical conductivity was 0.447 S/m.

**Q.** And the electrical conductivity (278.15 K, x2 = 0.8104)?
**A.** The electrical conductivity was 0.522 S/m.

**Q.** What about the electrical conductivity (278.15 K, x2 = 0.8384) of the same compound?
**A.** The electrical conductivity was 0.653 S/m.

**Q.** And the electrical conductivity (283.15 K, x2 = 0.7822)?
**A.** Its electrical conductivity is 0.552 S/m.

**Q.** What about the electrical conductivity (283.15 K, x2 = 0.8104) of the same compound?
**A.** The electrical conductivity was 0.642 S/m.

**Q.** What about the electrical conductivity (283.15 K, x2 = 0.8237) of the same compound?
**A.** The electrical conductivity was 0.677 S/m.

**Q.** What about the electrical conductivity (283.15 K, x2 = 0.8384) of the same compound?
**A.** The electrical conductivity was 0.799 S/m.

**Q.** What about the electrical conductivity (288.15 K, x2 = 0.8104) of the same compound?
**A.** The electrical conductivity was 0.772 S/m.

**Q.** And the electrical conductivity (288.15 K, x2 = 0.8237)?
**A.** Its electrical conductivity is 0.819 S/m.

**Q.** What about the electrical conductivity (288.15 K, x2 = 0.8384) of the same compound?
**A.** Its electrical conductivity is 0.956 S/m.

**Q.** What about the electrical conductivity (290.15 K, x2 = 0.8384) of the same compound?
**A.** Its electrical conductivity is 1.02 S/m.

**Q.** And the electrical conductivity (291.15 K, x2 = 0.8237)?
**A.** Its electrical conductivity is 0.91 S/m.

**Q.** And the electrical conductivity (291.15 K, x2 = 0.8384)?
**A.** Its electrical conductivity is 1.05 S/m.

**Q.** And the electrical conductivity (292.15 K, x2 = 0.8104)?
**A.** Its electrical conductivity is 0.89 S/m.

**Q.** And the electrical conductivity (293.15 K, x2 = 0.7822)?
**A.** The electrical conductivity was 0.801 S/m.

**Q.** And the electrical conductivity (293.15 K, x2 = 0.8104)?
**A.** Its electrical conductivity is 0.921 S/m.

**Q.** What about the electrical conductivity (293.15 K, x2 = 0.8237) of the same compound?
**A.** The electrical conductivity was 0.971 S/m.

**Q.** What about the electrical conductivity (293.15 K, x2 = 0.8384) of the same compound?
**A.** Its electrical conductivity is 1.13 S/m.

**Q.** What about the electrical conductivity (294.15 K, x2 = 0.8104) of the same compound?
**A.** The electrical conductivity was 0.951 S/m.

**Q.** What about the viscosity (296.15 K, x2 = 0.8237) of the same compound?
**A.** The viscosity was 73.9 mPa·s.

**Q.** What about the viscosity (297.15 K, x2 = 0.7822) of the same compound?
**A.** Its viscosity is 76.7 mPa·s.

**Q.** What about the viscosity (297.15 K, x2 = 0.8384) of the same compound?
**A.** Its viscosity is 62.9 mPa·s.

**Q.** And the electrical conductivity (298.15 K, x2 = 0.7822)?
**A.** The electrical conductivity was 0.949 S/m.

**Q.** What about the viscosity (298.15 K, x2 = 0.7822) of the same compound?
**A.** The viscosity was 72.6 mPa·s.

**Q.** What about the electrical conductivity (298.15 K, x2 = 0.8104) of the same compound?
**A.** The electrical conductivity was 1.07 S/m.

**Q.** What about the viscosity (298.15 K, x2 = 0.8104) of the same compound?
**A.** Its viscosity is 67.2 mPa·s.

**Q.** What about the electrical conductivity (298.15 K, x2 = 0.8384) of the same compound?
**A.** Its electrical conductivity is 1.31 S/m.

**Q.** And the viscosity (298.15 K, x2 = 0.8384)?
**A.** The viscosity was 59.6 mPa·s.

**Q.** And the viscosity (299.15 K, x2 = 0.8237)?
**A.** The viscosity was 60.2 mPa·s.

**Q.** And the viscosity (300.15 K, x2 = 0.8237)?
**A.** Its viscosity is 57.1 mPa·s.

**Q.** And the electrical conductivity (303.15 K, x2 = 0.7822)?
**A.** Its electrical conductivity is 1.11 S/m.

**Q.** And the viscosity (303.15 K, x2 = 0.7822)?
**A.** Its viscosity is 55.9 mPa·s.

**Q.** And the electrical conductivity (303.15 K, x2 = 0.8104)?
**A.** The electrical conductivity was 1.25 S/m.

**Q.** And the viscosity (303.15 K, x2 = 0.8104)?
**A.** Its viscosity is 51.7 mPa·s.

**Q.** And the viscosity (308.15 K, x2 = 0.7822)?
**A.** The viscosity was 43.7 mPa·s.

**Q.** What about the viscosity (308.15 K, x2 = 0.8104) of the same compound?
**A.** Its viscosity is 40.4 mPa·s.

**Q.** And the viscosity (308.15 K, x2 = 0.8237)?
**A.** The viscosity was 38.33 mPa·s.

**Q.** And the viscosity (308.15 K, x2 = 0.8384)?
**A.** The viscosity was 36.02 mPa·s.

**Q.** And the electrical conductivity (313.15 K, x2 = 0.7822)?
**A.** The electrical conductivity was 1.47 S/m.

**Q.** What about the viscosity (313.15 K, x2 = 0.7822) of the same compound?
**A.** The viscosity was 34.66 mPa·s.

**Q.** And the electrical conductivity (313.15 K, x2 = 0.8237)?
**A.** The electrical conductivity was 1.73 S/m.

**Q.** What about the electrical conductivity (313.15 K, x2 = 0.8384) of the same compound?
**A.** The electrical conductivity was 1.98 S/m.

**Q.** And the viscosity (313.15 K, x2 = 0.8384)?
**A.** Its viscosity is 28.64 mPa·s.

**Q.** What about the viscosity (318.15 K, x2 = 0.8237) of the same compound?
**A.** Its viscosity is 24.55 mPa·s.

**Q.** And the electrical conductivity (323.15 K, x2 = 0.7822)?
**A.** Its electrical conductivity is 1.89 S/m.

**Q.** What about the viscosity (323.15 K, x2 = 0.7822) of the same compound?
**A.** The viscosity was 22.8 mPa·s.

**Q.** And the electrical conductivity (323.15 K, x2 = 0.8104)?
**A.** Its electrical conductivity is 2.09 S/m.

**Q.** What about the viscosity (323.15 K, x2 = 0.8104) of the same compound?
**A.** Its viscosity is 21.03 mPa·s.

**Q.** And the electrical conductivity (323.15 K, x2 = 0.8384)?
**A.** Its electrical conductivity is 2.55 S/m.

**Q.** And the viscosity (323.15 K, x2 = 0.8384)?
**A.** Its viscosity is 18.8 mPa·s.

**Q.** What about the viscosity (328.15 K, x2 = 0.8237) of the same compound?
**A.** Its viscosity is 16.51 mPa·s.

**Q.** And the electrical conductivity (333.15 K, x2 = 0.8104)?
**A.** Its electrical conductivity is 2.66 S/m.

**Q.** What about the viscosity (333.15 K, x2 = 0.8104) of the same compound?
**A.** Its viscosity is 14.42 mPa·s.

**Q.** And the electrical conductivity (333.15 K, x2 = 0.8384)?
**A.** The electrical conductivity was 3.13 S/m.

**Q.** What about the viscosity (333.15 K, x2 = 0.8384) of the same compound?
**A.** The viscosity was 12.91 mPa·s.

**Q.** And the viscosity (338.15 K, x2 = 0.8237)?
**A.** Its viscosity is 11.57 mPa·s.

**Q.** And the electrical conductivity (343.15 K, x2 = 0.8104)?
**A.** The electrical conductivity was 3.17 S/m.

**Q.** And the viscosity (343.15 K, x2 = 0.8104)?
**A.** Its viscosity is 10.28 mPa·s.

**Q.** What about the electrical conductivity (343.15 K, x2 = 0.8237) of the same compound?
**A.** The electrical conductivity was 3.28 S/m.

**Q.** And the electrical conductivity (343.15 K, x2 = 0.8384)?
**A.** Its electrical conductivity is 3.76 S/m.

**Q.** And the viscosity (343.15 K, x2 = 0.8384)?
**A.** The viscosity was 9.26 mPa·s.

**Q.** And the electrical conductivity (353.15 K, x2 = 0.8237)?
**A.** Its electrical conductivity is 3.77 S/m.

**Q.** What about the electrical conductivity (358.15 K, x2 = 0.8237) of the same compound?
**A.** Its electrical conductivity is 3.99 S/m.

**Q.** And the electrical conductivity (363.15 K, x2 = 0.8237)?
**A.** Its electrical conductivity is 4.35 S/m.
